From US10023592B2, “Bromodomain inhibitors” (Celgene Quanticel Research, Inc., priority 2013, dated 2018)
Read-outs that look alike come from different tables or passages of the source.

Key:
[1] = system: Raji, human Burkitts lymphoma cells; test: Cell-MTS proliferation assay, Raji; format: cell-based; conditions: Homo sapiens, Raji; Cell-MTS proliferation, 168 hr
In short: (§1)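 Cells were seeded per 96-well at densities giving ~90% confluence by day 7 (Raji 15,000, HL-60 5,000, NCI-H460 3,000) and dosed 24 hr later with an 11-point dilution, 100 μM to 2.0 nM final. Seven-day MTS colorimetric read at OD490; IC50 from background-subtracted, DMSO-normalised values.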

[2] = system: HL-60, human proleukemia cells; test: Cell-MTS proliferation assay, HL-60; format: cell-based; conditions: Homo sapiens, HL-60; Cell-MTS proliferation, 168 hr
In short: as §1

BRD4(BD1) = BRD4(BD1) (Homo sapiens (Human), UniProt O60885); test: In vitro enzyme inhibition assay (BRD4 AlphaScreen); format: binding
In short: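 AlphaScreen proximity readout, using streptavidin donor and Ni-chelate acceptor beads at 5 μg/mL final, monitors biotin-H4 tetraacetylated peptide interaction with purified His-tagged BRD4.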

[3] = system: NCI-H460, human non-small cell lung cancer cells; test: Cell-MTS proliferation assay, NCI-H460; format: cell-based; conditions: Homo sapiens, NCI-H460; Cell-MTS proliferation, 168 hr
In short: as §1

[4] = in vitro enzyme inhibition assay

| Structure (SMILES) | IC50 [1] [nM] | IC50 [2] [nM] | IC50 (BRD4(BD1); [4]) [nM] | IC50 [3] [µM] | IC50 (BRD4(BD1)) [nM] |
| --- | --- | --- | --- | --- | --- |
| Cn1cc(-c2cc(S(C)(=O)=O)ccc2O[C@H]2CC[C@H](N)CC2)c2ccccc2c1=O [Example 182, 4-[2-(trans-4-aminocyclohexyl)oxy-5-methylsulfonylphenyl]-2-methylisoquinolin-1-one] | < 500 | < 500 | < 500 | > 5 | – |
| Cn1cc(-c2cc(S(C)(=O)=O)ccc2O[C@H]2CC[C@@H](N)CC2)c2ccccc2c1=O [Example 183, 4-[2-(cis-4-aminocyclohexyl)oxy-5-methylsulfonylphenyl]-2-methylisoquinolin-1-one] | > 5000 | 500 to 5000 | < 500 | > 5 | – |
| CC#CCOc1ccc(S(C)(=O)=O)cc1-c1cn(C)c(=O)c2ccccc12 [Example 184, 4-(2-but-2-ynoxy-5-methylsulfonylphenyl)-2-methylisoquinolin-1-one] | 500 to 5000 | < 500 | < 500 | 0.5 to 5 | – |
| CC#CCOc1ccc(S(=O)(=O)CC)cc1-c1cn(C)c(=O)c2ccccc12 [Example 185, 4-(2-but-2-ynoxy-5-ethylsulfonylphenyl)-2-methylisoquinolin-1-one] | < 500 | < 500 | < 500 | > 5 | – |
| Cn1cc(-c2cc(S(C)(=O)=O)ccc2O[C@H]2CC[C@H](O)CC2)c2cc(F)ccc2c1=O [Example 186, 6-fluoro-4-[2-(trans-4-hydroxycyclohexyl)oxy-5-methylsulfonylphenyl]-2-methylisoquinolin-1-one] | < 500 | < 500 | < 500 | > 5 | – |
| Cn1cc(-c2cc(S(C)(=O)=O)ccc2O[C@H]2CC[C@H](O)CC2)c2ccc(F)cc2c1=O [Example 187, 7-fluoro-4-[2-(trans-4-hydroxycyclohexyl)oxy-5-methylsulfonylphenyl]-2-methylisoquinolin-1-one] | < 500 | < 500 | < 500 | > 5 | – |
| Cn1cc(-c2cc(S(C)(=O)=O)ccc2NC2CCOC2)c2ccccc2c1=O (centres unmarked) [Example 190, 2-methyl-4-[5-methylsulfonyl-2-(oxolan-3-ylamino)phenyl]isoquinolin-1-one] | 500 to 5000 | 500 to 5000 | < 500 | > 5 | – |
| Cn1cc(-c2cc(S(C)(=O)=O)ccc2NC2CCOCC2)c2ccccc2c1=O [Example 191, 2-methyl-4-[5-methylsulfonyl-2-(oxan-4-ylamino)phenyl]isoquinolin-1-one] | < 500 | < 500 | < 500 | > 5 | – |
| Cn1cc(-c2cc(S(C)(=O)=O)ccc2N[C@H]2CC[C@H](O)CC2)c2ccccc2c1=O [Example 192, 4-[2-[(trans-4-hydroxycyclohexyl)amino]-5-methylsulfonylphenyl]-2-methylisoquinolin-1-one] | < 500 | < 500 | < 500 | > 5 | – |
| CCS(=O)(=O)c1ccc(NCC2CC2)c(-c2cn(C)c(=O)c3ccccc23)c1 [Example 193, 4-[2-(cyclopropylmethylamino)-5-ethylsulfonylphenyl]-2-methylisoquinolin-1-one] | < 500 | < 500 | < 500 | > 5 | – |
| Cn1cc(-c2cc(S(C)(=O)=O)ccc2NCC2CC2)c2ccccc2c1=O [Example 194, 4-[2-(cyclopropylmethylamino)-5-methylsulfonylphenyl]-2-methylisoquinolin-1-one] | < 500 | < 500 | – | > 5 | < 500 |
| CCS(=O)(=O)c1ccc(NCC2CC2)c(-c2cn(C)c(=O)c3cc(F)ccc23)c1 [Example 195, 4-[2-(cyclopropylmethylamino)-5-ethylsulfonylphenyl]-7-fluoro-2-methylisoquinolin-1-one] | < 500 | < 500 | < 500 | > 5 | – |
| Cn1cc(-c2cc(S(C)(=O)=O)ccc2NCC2CC2)c2ccc(F)cc2c1=O [Example 196, 4-[2-(cyclopropylmethylamino)-5-methylsulfonylphenyl]-7-fluoro-2-methylisoquinolin-1-one] | < 500 | < 500 | < 500 | > 5 | – |
| COc1ccc2c(=O)n(C)cc(-c3cc(S(C)(=O)=O)ccc3OCC3CC3)c2c1 [Example 198, 4-(2-(cyclopropylmethoxy)-5-(methylsulfonyl)phenyl)-6-methoxy-2-methylisoquinolin-1(2H)-one] | < 500 | < 500 | < 500 | > 5 | – |
| Cn1cc(-c2nc(S(C)(=O)=O)ccc2OCC2CC2)c2ccccc2c1=O [Example 199, 4-[3-(cyclopropylmethoxy)-6-methylsulfonylpyridin-2-yl]-2-methylisoquinolin-1-one] | < 500 | < 500 | < 500 | > 5 | – |
| Cn1cc(-c2cc(S(C)(=O)=O)ncc2OCC2CC2)c2ccccc2c1=O [Example 200, 4-[5-(cyclopropylmethoxy)-2-methylsulfonylpyridin-4-yl]-2-methylisoquinolin-1-one] | 500 to 5000 | < 500 | < 500 | > 5 | – |
| Cn1cc(-c2nc(S(C)(=O)=O)ccc2OCC2CC2)c2ccc(F)cc2c1=O [Example 201, 4-[3-(cyclopropylmethoxy)-6-methylsulfonylpyridin-2-yl]-7-fluoro-2-methylisoquinolin-1-one] | < 500 | < 500 | < 500 | > 5 | – |
| CCOc1sc(S(=O)(=O)CC)cc1-c1cn(C)c(=O)c2ccccc12 [Example 204, 4-(2-ethoxy-5-ethylsulfonylthiophen-3-yl)-2-methylisoquinolin-1-one] | 500 to 5000 | 500 to 5000 | < 500 | > 5 | – |
| CCS(=O)(=O)c1cc(-c2cn(C)c(=O)c3ccccc23)c(NCC2CC2)s1 [Example 205, 4-[2-(cyclopropylmethylamino)-5-ethylsulfonylthiophen-3-yl]-2-methylisoquinolin-1-one] | 500 to 5000 | 500 to 5000 | < 500 | > 5 | – |
| CCS(=O)(=O)c1ccc(OCC2CC2)c(-c2cn(C)c(=O)c3ccccc23)n1 [Example 206, 4-[3-(cyclopropylmethoxy)-6-ethylsulfonylpyridin-2-yl]-2-methylisoquinolin-1-one] | < 500 | < 500 | < 500 | > 5 | – |
| CCS(=O)(=O)c1cc(-c2cn(C)c(=O)c3ccccc23)c(OCC2CC2)cn1 [Example 207, 4-[5-(cyclopropylmethoxy)-2-ethylsulfonylpyridin-4-yl]-2-methylisoquinolin-1-one] | < 500 | < 500 | < 500 | > 5 | – |
| COc1ccc(S(=O)(=O)CCO)cc1-c1cn(C)c(=O)c2ccc(-c3cnn(C)c3)cc12 [Example 208, 4-[5-(2-hydroxyethylsulfonyl)-2-methoxyphenyl]-2-methyl-6-(1-methylpyrazol-4-yl)isoquinolin-1-one] | 500 to 5000 | < 500 | < 500 | > 5 | – |
| CCS(=O)(=O)Nc1cc(-c2cn(C)c(=O)c3ccc(-c4cnn(C)c4)cc23)c(OCC2CC2)cc1F [Example 209, N-[4-(cyclopropylmethoxy)-2-fluoro-5-[2-methyl-6-(1-methylpyrazol-4-yl)-1-oxoisoquinolin-4-yl]phenyl]ethanesulfonamide] | < 500 | < 500 | < 500 | > 5 | – |
| CCS(=O)(=O)c1ccc(OC)c(-c2cn(C)c(=O)c3ccc(-c4cn[nH]c4)cc23)c1 [Example 210, 4-(5-ethylsulfonyl-2-methoxyphenyl)-2-methyl-6-(1H-pyrazol-4-yl) isoquinolin-1-one] | < 500 | < 500 | < 500 | > 5 | – |
| CCS(=O)(=O)Nc1ccnc(-c2cn(C)c(=O)c3ccc(-c4cnn(C)c4)cc23)c1 [Example 213, N-[2-[2-methyl-6-(1-methylpyrazol-4-yl)-1-oxoisoquinolin-4-yl]pyridin-4-yl]ethanesulfonamide] | 500 to 5000 | 500 to 5000 | < 500 | > 5 | – |
| Cn1cc(-c2cc(S(C)(=O)=O)ccc2OCC2CC2)c2c(c1=O)CCCC2 [Example 217, 4-[2-(cyclopropylmethoxy)-5-methylsulfonylphenyl]-2-methyl-5,6,7,8-tetrahydroisoquinolin-1-one] | < 500 | < 500 | < 500 | > 5 | – |
| Cn1cc(-c2cc(NS(C)(=O)=O)c(F)cc2OCC2CC2)c2c(c1=O)CCCC2 [Example 218, N-[4-(cyclopropylmethoxy)-2-fluoro-5-(2-methyl-1-oxo-5,6,7,8-tetrahydroisoquinolin-4-yl)phenyl]methanesulfonamide] | 500 to 5000 | < 500 | < 500 | > 5 | – |
| CCS(=O)(=O)c1ccc(OCC2CC2)c(-c2cn(C)c(=O)c3c2CCCC3)c1 [Example 219, 4-[2-(cyclopropylmethoxy)-5-ethylsulfonylphenyl]-2-methyl-5,6,7,8-tetrahydroisoquinolin-1-one] | < 500 | < 500 | < 500 | > 5 | – |
| Cn1cc(-c2cc(S(C)(=O)=O)ccc2NC(=O)C2CC2)c2ccccc2c1=O [Example 220, N-[2-(2-methyl-1-oxoisoquinolin-4-yl)-4-methylsulfonylphenyl]cyclopropanecarboxamide] | > 5000 | > 5000 | 500 to 5000 | > 5 | – |
